Laboratory results reported in patent US20240150387A1, “GLUCOCEREBROSIDE COMPOUND, PHARMACEUTICAL COMPOSITION THEREOF AND USE THEREOF” (DONGGUAN HEC CORDYCEPS R&D CO., LTD., priority 2021, published 2024).

What was measured:
spleen lymphocytes = experiment: Detection of cell viability (CCK-8) of spleen lymphocytes; assay type: cell-based, mouse; conditions: 64, 32, 16, 8, 4, and 2 μM; 60 h incubation; compared with the control group
Description: (§1) 3.2.1 Cell acquisition: BABL/C male mice ere sacrificed after eyeball extraction and bloodletting, soaked in 75% ethanol for 10 mint, and the spleen was aseptically removed in an ultra-clean workbench, and placed in a petri dish filled with PBS. A syringe was used to absorb PBS to rinse the surface and interior of the spleen until the spleen turned white, then the spleen was gently torn up with tweezers. The spleen was gently crushed with a 5 mL syringe on the steel mesh to make a single-cell suspension, which was filtered through a 200-mesh sieve. The filtrate was centrifuged for 10 min (1000 rpm/min); after centrifugation, the supertnatant was discarded. After the cell pellet was resuspended with PBS, the mixture was centrifuged again for 10 min (1000 rpm/min), and the operation was repeated once; 2 mL of erythrocyte lysate was added to the cell pellet. After the mixture was mixed evenly and allowed to stand for 5 min, 8 mL of PBS was added to nx evenly, and then the mixture was centrifuged at 1000 rpm min for 5 min. After centrifugation, the supernatant was discarded, the cell pellet was resuspended with PBS, then the mixture was centrifuged again for 10 min (1000 rpm/min), and the operation was repeated once; after centrifugation, the supematant ias discarded, the cell pellet was suspended in 1 mL of RPMI-1640 complete medium (containing 10% fetal bovine serum and 1% double antibody). 2-3 mL medium was added to dilute. A cell counter was used for cell counting (new cell type), and complete medium was used to adjust the cell concentration to 2*10^6 cells/mL.
(§2) 3.2.2 Stunple preparation: appropriate amount of compounds 1, 2, 3, and 4 were dissolved in DMSO respectively to prepare 64 mM mother solution, and then diluted with medium to obtain solutions with a concentration of 128 μM respectively, and then gradiently diluted with medium to obtain sample dilutions with concentrations of 64 μM, 32 μM, 16 μM, 8 μM, and 4 μM, respectively.
3.2.3 Detection of cell viability: the prepared cell suspension was added to a 96-well plate. The seeding cell density was 2*10^5 cells/well, and the added cell volume was 100 μL. Compounds 1, 2, 3, and 4 were added at 100 μL/well, with 5 replicate wells for each concentration, and then incubated in a 37° C. 5% CO2 incubator for 60 h, and then incubated in a 37° C. incubator for 4-5 hours with serum-free medium and 10% CCK-8. The absorbance (A) value of each well was detected at 450 nm by a inicroplate reader. […]
3.2.5 Data processing: the proliferation rate (viability) of the sample to spleen hymphocytes was calculated according to the following formula:
Proliferation rate %=[As/Ac]×100% • As: Absorbance of sample group (spleen lymphocytes+samples to be tested+CCK-8) • Ac: Absorbance of control group (spleen lymphocytes+CCK-8)

[1] = tested on: spleen lymphocytes induced by Con A; experiment: Detection of cell proliferation inhibition: Con A-induced spleen lymphocyte proliferation (CCK-8); assay type: cell-based; conditions: Mus musculus; for inhibition at 2 µM: concentration 2 μM; for inhibition at 2 µM / inhibition at 4 µM / inhibition at 8 µM / inhibition at 16 µM / inhibition at 32 µM / inhibition at 64 µM: read-out: Inhibitory rate (%) on the proliferation of spleen lymphocytes induced by Con A; for inhibition at 4 µM: concentration 4 μM; for inhibition at 8 µM: concentration 8 μM; for inhibition at 16 µM: concentration 16 μM; for inhibition at 32 µM: concentration 32 μM; for inhibition at 64 µM: concentration 64 μM; for IC50: linear fit of inhibition rate against log concentration, ConA final 7.5 μg/mL, 48 h
Description: as §1, §2
3.2.4 Detection of cell proliferation inhibition: the prepared cell suspension was added to the 96-well plate. The seeding cell density was 2*10^5 cells/well, and the added cell volume was 100 μL. Samples were added at 100 μL, with 5 replicate wells for each concentration, and then incubated in a 37° C., 5% CO2 incubator for 12 h. 10 μL of the supernatant were carefully suck out. 10 μL ConA with a concentration of 150 μg/mL (final concentration: 7.5 μg/mL) was added to the corresponding group, and then the mixture was incubated in a 37° C., 5% CO2 incubator for 48 h, and finally incubated in a 37° C. incubator for 4-5 hours with serum-free medium and 10% CCK-8. The absorbance (A) value of each well was detected at 450 nm by a microplate reader. A negative control group and a model control group were set up, which were cells+1640 medium, cells+ConA+1640 medium, respectively.
The proliferation inhibition rate of the sample to spleen lymphocytes was calculated according to the following formula:
Proliferation inhibition rate %=[(Am−As)/(Am−Ac)]×100% • Am: Absorbance of model control group (spleen lymphocytes+ConA+CCK-8) • As: Absorbance of sample group (spleen lymphocytes+samples to be tested+ConA+CCK-8) • Ac: Absorbance of negative control group (spleen lymphocytes+CCK-8)
The experimental results of compounds 1. 2, 3.

Compound | cytotoxic effect on spleen lymphocytes (spleen lymphocytes) | inhibition at 2 µM [1] [%] | inhibition at 4 µM [1] [%] | inhibition at 8 µM [1] [%] | inhibition at 16 µM [1] [%] | inhibition at 32 µM [1] [%] | inhibition at 64 µM [1] [%] | IC50 [1] [µM]
CCCCCCCCCCCCC/C=C/[C@@H](O)C(=O)N[C@@H](CO[C@@H]1O[C@H](CO)[C@@H](O)[C@H](O)[C@H]1O)[C@H](O)/C=C/CC/C=C(\C)CCCCCCCCC [Compound 1] | no cytotoxic effect | 130 | 136 | 146 | 150 | 148 | 152 | 4
CCCCCCCCCCC/C=C/[C@@H](O)C(=O)N[C@@H](CO[C@@H]1O[C@H](CO)[C@@H](O)[C@H](O)[C@H]1O)[C@H](O)/C=C/CC/C=C(\C)CCCCCCCCC [Compound 2] | no cytotoxic effect | 43.7 | 54.3 | 77.7 | 100 | 126 | 140 | 10.4
CCCCCCCCC/C=C/CC/C=C/[C@@H](O)[C@H](CO[C@@H]1O[C@H](CO)[C@@H](O)[C@H](O)[C@H]1O)NC(=O)[C@H](O)/C=C/CCCCCCCCCCCC [Compound 3] | no cytotoxic effect | 4.5 | 30.9 | 37.4 | 52 | 84.2 | 123 | 19.5
CCCCCCCCCCCCCCCC(=O)N[C@@H](CO[C@@H]1O[C@H](CO)[C@@H](O)[C@H](O)[C@H]1O)[C@H](O)/C=C/CC/C=C(\C)CCCCCCCCC [Compound 4] | no cytotoxic effect | 72.2 | 70.7 | 100 | 102 | 120 | 120 | 1.5
